Consider eleven molecules from US4959460A, “3'-deamino-3'-(2"-substituted-4"-morpholino)-anthracycline compounds” (priority 1988, dated 1990).

Values after ≈ are worked out from the molar mass of the structure shown.

One experiment concerns P388 leukemia. As to the kind of experiment: Antitumor activity against P388 leukemia intraperitoneally transplanted into CDF2 mice. The experiment is classed as in vivo. The following applies: for T/C: control = 100. The protocol:
The effects of the test anthracycline compounds are shown below in terms of T/C (%), the survival days of the control mice to which physiological saline solutions was administered being specified as 100.

For experiment [1], the system named is P388 mouse leukemia cells. Kind of experiment: Anti-proliferative activity against cultivated P388 mouse leukemia cells. The settings on record: P388 cells 5×10^4 cells/ml, RPMI 1640, 10% fetal bovine serum, 37° C., read-out: 50% proliferation-inhibitory concentration (IC50). The experiment is classed as cell-based. The method, then:
(1) Anti-proliferative activity against cultivated P388 mouse leukemia cells:
More specifically, a medium RPMI 1640 (Rosewell Park Memorial Institute medium 1640) containing a given amount of the 3'-deamino-3'-(2"-substituted-4"-morpholino) anthracycline compound and 10% fetal bovine serum was inoculated with cultivated P388 5×10^4 cells/ml. Incubation was carried out at 37° C. in a CO2 incubator, and the number of the cells in each medium was then counted to determine 50% proliferation-inhibitory concentration (IC50, ng/ml) relative to the control (no test compounds added).

The mark [2] stands for this setting: 0.25 mg/kg i.v., day 1 and day 5.
Setting [3] is: 0.5 mg/kg i.v., day 1 and day 5.
Where [4] appears, read: 0.125 mg/kg i.v., day 1 and day 5.
The mark [5] stands for this setting: 2 mg/kg i.v., administered only day 1.
[6] abbreviates: 4 mg/kg i.v., administered only day 1.
The mark [7] stands for this setting: 1 mg/kg i.v., administered only day 1.
[8] abbreviates: 16 mg/kg i.v., administered only day 1.
Setting [9] is: 0.29 mg/kg i.v., day 1 and day 5.
Where [10] appears, read: 0.44 mg/kg i.v., day 1 and day 5.
The mark [11] stands for this setting: 0.66 mg/kg i.v., day 1 and day 5.
Setting [12] is: 0.99 mg/kg i.v., day 1 and day 5.
[13] abbreviates: 1.48 mg/kg i.v., day 1 and day 5.
[14] abbreviates: 2.22 mg/kg i.v., day 1 and day 5.
[15] abbreviates: 3.33 mg/kg i.v., day 1 and day 5.
Where [16] appears, read: 5.00 mg/kg i.v., day 1 and day 5.

By T/C is commonly meant the result in the treated group divided by that in the control group, in per cent. As for `CC[C@@]1(O)C[C@H](O[C@H]2C[C@H](N3CCO[C@@H](N=[N+]=[N-])C3)[C@H](O)[C@H](C)O2)c2c(O)c3c(c(O)c2[C@H]1O)C(=O)c1cccc(O)c1C3=O` [3'-Deamino-3'-[(2"R)-2"-azido-4"-morpholino]-13-deoxo-10-hydroxycarminomycin], the “Number of cured mice/Number of test mice” value in the experiment on P388 leukemia (setting [2]) is 0/6; in the experiment on P388 leukemia (setting [3]), 0/6; in the experiment with P388 leukemia (1 mg/kg i.v., day 1 and day 5) it was 0/6; with P388 leukemia (2 mg/kg i.v., day 1 and day 5), 0/6; in the experiment on P388 leukemia (4 mg/kg i.v., day 1 and day 5), 0/6. Also, the T/C came out at 115% in the experiment on P388 leukemia (setting [2]); 163% in the experiment on P388 leukemia (setting [3]); 196% in the experiment with P388 leukemia (1 mg/kg i.v., day 1 and day 5); 294% in the experiment on P388 leukemia (2 mg/kg i.v., day 1 and day 5); 124% with P388 leukemia (4 mg/kg i.v., day 1 and day 5). Besides, in experiment [1], the IC50 is 0.0189 µg/mL (≈ 0.0302 µM).

Turning to `CC[C@@]1(O)C[C@H](O[C@H]2C[C@H](N3CCO[C@@H](OC)C3)[C@H](O)[C@H](C)O2)c2c(O)c3c(c(O)c2[C@H]1O)C(=O)c1cccc(O)c1C3=O` [3'-Deamino-3'-[(2"R)-2"-methoxy-4"-morpholino]-13-deoxo-10-hydroxycarminomycin], the “Number of cured mice/Number of test mice” value in the experiment on P388 leukemia (setting [4]) was 0/6; in the experiment on P388 leukemia (setting [2]) it was 0/6; with P388 leukemia (setting [3]) it was 0/6; in the experiment on P388 leukemia (1 mg/kg i.v., day 1 and day 5), 0/6; in the experiment with P388 leukemia (setting [5]), 0/6. Moreover, the T/C turned out to be 119% with P388 leukemia (setting [4]); 149% in the experiment on P388 leukemia (setting [2]); 172% in the experiment on P388 leukemia (setting [3]); 181% in the experiment on P388 leukemia (1 mg/kg i.v., day 1 and day 5); 36% in the experiment with P388 leukemia (setting [5]). Moreover, the IC50 in experiment [1] was found to be 0.009 µg/mL (≈ 0.0146 µM).

In the case of `CC[C@@]1(O)C[C@H](O[C@H]2C[C@H](N3CCO[C@H](C)C3)[C@H](O)[C@H](C)O2)c2c(O)c3c(c(O)c2[C@H]1O)C(=O)c1cccc(O)c1C3=O` [3'-Deamino-3'-[(2"R)-2"-methyl-4"-morpholino]-13-deoxo-10-hydroxycarminomycin], in experiment [1], the IC50 is 0.034 µg/mL (≈ 0.0567 µM).

Consider `CC[C@@]1(O)C[C@H](O[C@H]2C[C@H](N3CCO[C@@H](NC(=O)C(F)(F)F)C3)[C@H](O)[C@H](C)O2)c2c(O)c3c(c(O)c2[C@H]1O)C(=O)c1cccc(O)c1C3=O` [3'-Deamino-3'-[(2"R)-2"-trifluoroacetamido-4"-morpholino]-13-deoxo-10-hydroxycarminomycin], for which the “Number of cured mice/Number of test mice” value with P388 leukemia (2 mg/kg i.v., day 1 and day 5) is 0/6; with P388 leukemia (4 mg/kg i.v., day 1 and day 5), 0/6; with P388 leukemia (8 mg/kg i.v., day 1 and day 5), 0/6; with P388 leukemia (16 mg/kg i.v., day 1 and day 5), 2/6. In addition, the T/C in the experiment on P388 leukemia (2 mg/kg i.v., day 1 and day 5) stood at 120%; with P388 leukemia (4 mg/kg i.v., day 1 and day 5), 150%; in the experiment on P388 leukemia (8 mg/kg i.v., day 1 and day 5) it was 165%; in the experiment on P388 leukemia (16 mg/kg i.v., day 1 and day 5) it was 319%. In experiment [1], the IC50 worked out at 0.0225 µg/mL (≈ 0.0323 µM).

For `CC[C@@]1(O)C[C@H](O[C@H]2C[C@H](N3CCO[C@H](CO)C3)[C@H](O)[C@H](C)O2)c2c(O)c3c(c(O)c2[C@H]1O)C(=O)c1cccc(O)c1C3=O` [3'-Deamino-3'-[(2"S) -2"-hydroxymethyl-4"-morpholino]-13-deoxo-10-hydroxycarminomycin], in experiment [1], the IC50 was 0.02 µg/mL (≈ 0.0325 µM).

`CC[C@@]1(O)C[C@H](O[C@H]2C[C@H](N3CCO[C@H](NC(C)=O)C3)[C@H](O)[C@H](C)O2)c2c(O)c3c(c(O)c2[C@H]1O)C(=O)c1cccc(O)c1C3=O` [3'-Deamino-3'-[(2"S)-2"-acetamido-4"-morpholino]-13-deoxo-10-hydroxycarminomycin]: the “Number of cured mice/Number of test mice” value was 0/6 in the experiment on P388 leukemia (2 mg/kg i.v., day 1 and day 5); 0/6 in the experiment with P388 leukemia (4 mg/kg i.v., day 1 and day 5); 0/6 in the experiment on P388 leukemia (8 mg/kg i.v., day 1 and day 5); 0/6 in the experiment on P388 leukemia (16 mg/kg i.v., day 1 and day 5). Also, the T/C in the experiment with P388 leukemia (2 mg/kg i.v., day 1 and day 5) worked out at 124%; in the experiment with P388 leukemia (4 mg/kg i.v., day 1 and day 5), 124%; in the experiment with P388 leukemia (8 mg/kg i.v., day 1 and day 5) it was 146%; in the experiment on P388 leukemia (16 mg/kg i.v., day 1 and day 5), 340%. Further, the IC50 in experiment [1] was 0.083 µg/mL (≈ 0.129 µM).

`CC[C@@]1(O)C[C@H](O[C@H]2C[C@H](N3CCO[C@H](N=[N+]=[N-])C3)[C@H](O)[C@H](C)O2)c2c(O)c3c(c(O)c2[C@H]1O)C(=O)c1cccc(O)c1C3=O` [3'-Deamino-3'-[(2"S)-2"-azido-4"-morpholino]-13-deoxo-10-hydroxycarminomycin]: the “Number of cured mice/Number of test mice” value with P388 leukemia (setting [3]) is on record as 0/6; with P388 leukemia (1 mg/kg i.v., day 1 and day 5), 0/6; in the experiment with P388 leukemia (2 mg/kg i.v., day 1 and day 5) it was 0/6; in the experiment on P388 leukemia (setting [6]), 1/6. The T/C is 122% in the experiment on P388 leukemia (setting [3]); 163% in the experiment with P388 leukemia (1 mg/kg i.v., day 1 and day 5); 231% in the experiment on P388 leukemia (2 mg/kg i.v., day 1 and day 5); 355% in the experiment on P388 leukemia (setting [6]). In addition, in experiment [1], the IC50 came out at 0.024 µg/mL (≈ 0.0383 µM).

Consider `CC[C@@]1(O)C[C@H](O[C@H]2C[C@H](N3CCO[C@H](CCl)C3)[C@H](O)[C@H](C)O2)c2c(O)c3c(c(O)c2[C@H]1O)C(=O)c1cccc(O)c1C3=O` [3'-Deamino-3'-[(2"S)-2"-chloromethyl-4"-morpholino]-13-deoxo-10-hydroxycarminomycin], for which the IC50 in experiment [1] amounted to 0.036 µg/mL (≈ 0.0568 µM).

As for `CC[C@@]1(O)C[C@H](O[C@H]2C[C@H](N3CCO[C@H](OC)C3)[C@H](O)[C@H](C)O2)c2c(O)c3c(c(O)c2[C@H]1O)C(=O)c1cccc(O)c1C3=O` [3'-Deamino-3'-[(2"S)-2"-methoxy-4"-morpholino]-13-deoxo-10-hydroxycarminomycin], the “Number of cured mice/Number of test mice” value in the experiment with P388 leukemia (setting [4]), with P388 leukemia (setting [2]), with P388 leukemia (setting [3]) and with P388 leukemia (setting [7]) was 0/6 each time. In addition, the T/C was 103% in the experiment on P388 leukemia (setting [4]), 182% in the experiment on P388 leukemia (setting [2]), 196% with P388 leukemia (setting [3]) and 182% with P388 leukemia (setting [7]). Besides, in experiment [1], the IC50 was 0.018 µg/mL (≈ 0.0292 µM).

With `CC[C@@]1(O)C[C@H](O[C@H]2C[C@H](N3CCO[C@H](NC(=O)C(F)(F)F)C3)[C@H](O)[C@H](C)O2)c2c(O)c3c(c(O)c2[C@H]1O)C(=O)c1cccc(O)c1C3=O` [3'-Deamino-3'-[(2"S)-2"-trifluoroacetamido-4"-morpholino]-13-deoxo-10-hydroxycarminomycin], the “Number of cured mice/Number of test mice” value is 0/6 in the experiment with P388 leukemia (2 mg/kg i.v., day 1 and day 5); 0/6 with P388 leukemia (4 mg/kg i.v., day 1 and day 5); 0/6 in the experiment on P388 leukemia (8 mg/kg i.v., day 1 and day 5); 0/6 in the experiment with P388 leukemia (setting [8]). Besides, the T/C is 136% in the experiment on P388 leukemia (2 mg/kg i.v., day 1 and day 5); 181% in the experiment on P388 leukemia (4 mg/kg i.v., day 1 and day 5); 229% in the experiment with P388 leukemia (8 mg/kg i.v., day 1 and day 5); 263% in the experiment with P388 leukemia (setting [8]). For the same molecule, the IC50 in experiment [1] was determined as 0.052 µg/mL (≈ 0.0746 µM).

With `CC[C@@]1(O)C[C@H](O[C@H]2C[C@H](N3CCOCC3)[C@H](O)[C@H](C)O2)c2c(O)c3c(c(O)c2[C@H]1O)C(=O)c1cccc(O)c1C3=O` [3'Deamino-3'-morpholino-R20X2, reference compound], the “Number of cured mice/Number of test mice” value in the experiment with P388 leukemia (setting [9]), in the experiment on P388 leukemia (setting [10]), in the experiment with P388 leukemia (setting [11]), in the experiment with P388 leukemia (setting [12]), in the experiment with P388 leukemia (setting [13]) and in the experiment with P388 leukemia (setting [14]) was 0/6 in each case. Further, the “Number of cured mice/Number of test mice” value in the experiment with P388 leukemia (setting [15]) and with P388 leukemia (setting [16]) was 0/6 each time. Further, the T/C with P388 leukemia (setting [9]) was 110%; in the experiment with P388 leukemia (setting [10]), 143%; in the experiment on P388 leukemia (setting [11]) it was 162%; in the experiment with P388 leukemia (setting [12]) it was 173%; in the experiment with P388 leukemia (setting [13]), 189%; with P388 leukemia (setting [14]), 189%. In addition, the T/C worked out at 240% with P388 leukemia (setting [15]) and 135% in the experiment with P388 leukemia (setting [16]).
